Calls of active or inactive are those of the source. No rule for the calls is given here.
System: CCHF vOTU
Assay: CCHF vOTU protease inhibitors, late-stage follow-up, biochemical, fluorescence, Ub-R110 substrate (AID 743474)
Details: Recombinant CCHF vOTU, Ub-R110 fluorescence cleavage, hits give high values

Question: With `CC(=O)c1ccc(NC(=S)Nc2cccc3cnccc23)cc1` as the compound, how does the inhibition (Assay 1, Ub-R110 substrate, at 7.69 µM) read?
Answer: 4.4% (inactive)

Question: For `COc1cc(Br)c(C(=O)c2nccc3cc(OC)c(OC)cc23)cc1OC`, which inhibition (Assay 1, Ub-R110 substrate, at 1.13 µM) is on record?
Answer: 14.4% (inactive)

Question: `O=c1[nH]c(Nc2ccccc2)cc2cc(Br)ccc12` was tested. Which inhibition (Assay 1, Ub-R110 substrate, at 1.45 µM) did it give?
Answer: 19.9% (inactive)

Question: How did the inhibition (Assay 1, Ub-R110 substrate, at 0.6 µM) turn out when `O=C1Cc2ccccc2C(=O)N1` was run?
Answer: 57.9%

Question: How did the inhibition (Assay 1, Ub-R110 substrate, at 20.44 µM) turn out when `Cc1c(Cl)cnc(NC(=O)COC(=O)c2ccc([N+](=O)[O-])s2)c1Cl` was run?
Answer: 40.7%

Question: For `COc1cc(NC(=O)COC(=O)c2ccc([N+](=O)[O-])s2)cc(OC)c1OC`, which inhibition (Assay 1, Ub-R110 substrate, at 21.72 µM) is on record?
Answer: 15.2% (inactive)

Question: How did the inhibition (Assay 1, Ub-R110 substrate, at 12.24 µM) turn out when `Cc1ccc(NC2=CC(=O)C(=O)c3ccccc32)cc1` was run?
Answer: 22.1%

Question: `O=C(COC(=O)c1ccc([N+](=O)[O-])s1)NCc1ccc(F)cc1` was tested. Which inhibition (Assay 1, Ub-R110 substrate, at 40.58 µM) did it give?
Answer: 30.5%

Question: Which inhibition (Assay 1, Ub-R110 substrate, at 35.07 µM) does the source give for `COc1ccccc1NC(=O)COC(=O)c1ccc([N+](=O)[O-])s1` here?
Answer: 26.7%

Question: `Cn1nc(-c2ccccn2)nc2c(=O)n(C)c(=O)nc1-2` was tested. Which inhibition (Assay 1, Ub-R110 substrate, at 1.16 µM) did it give?
Answer: 97.3%

Question: Which inhibition (Assay 1, Ub-R110 substrate, at 6.96 µM) does the source give for `CCC(CNc1cc(OC)cc2cccnc12)NC1CCCCC1` (stereo not drawn) here?
Answer: 3.8% (inactive)

Question: With `O=C(COC(=O)c1ccc([N+](=O)[O-])s1)Nc1ncc(C(F)(F)F)cc1Cl` as the compound, how does the inhibition (Assay 1, Ub-R110 substrate, concentration not given here) read?
Answer: 41.1%

Question: Which inhibition (Assay 1, Ub-R110 substrate, at 7.61 µM) does the source give for `O=C(O)CSc1cc(NS(=O)(=O)c2cccc([N+](=O)[O-])c2)c2ccccc2c1O` here?
Answer: 0.5% (inactive)

Question: `O=C(OCc1nnc(-c2ccccc2)o1)c1ccc([N+](=O)[O-])s1` was tested. Which inhibition (Assay 1, Ub-R110 substrate, at 26.04 µM) did it give?
Answer: 20.8%

Question: With `O=S(=O)(Nc1cc2nc3ccccc3nc2n1Cc1ccccc1)c1ccc(Cl)cc1` as the compound, how does the inhibition (Assay 1, Ub-R110 substrate, at 7.6 µM) read?
Answer: 5% (inactive)

Question: With `O=C(/C=C/c1ccc(O)cc1)c1ccc(NC2=C(N3CCCCC3)C(=O)c3ccccc3C2=O)cc1` as the compound, how does the inhibition (Assay 1, Ub-R110 substrate, at 10.17 µM) read?
Answer: 23.2%

Question: Which inhibition (Assay 1, Ub-R110 substrate, at 12.37 µM) does the source give for `O=C(NC1=CC(=O)c2ccccc2C1=O)c1ccccc1` here?
Answer: 55.6%

Question: With `Cc1ccc(N2C(=O)[C@@H]3[C@H](C2=O)C2c4ccccc4C=CN2[C@@H]3C(=O)c2ccco2)cc1` (stereo partly drawn) as the compound, how does the inhibition (Assay 1, Ub-R110 substrate, at 5.2 µM) read?
Answer: 33.9%

Question: Which inhibition (Assay 1, Ub-R110 substrate, at 2.23 µM) does the source give for `Cc1ccccc1-c1cc2c(nn1)-c1ccccc1C2=O` here?
Answer: 3.27% (inactive)

Question: What about the inhibition (Assay 2, Ub-R110 substrate, at 4.46 µM) of the same compound?
Answer: 15.3% (inactive)

Question: Which inhibition (Assay 1, Ub-R110 substrate, at 4.04 µM) does the source give for `COc1cc(C(=O)c2nccc3cc(OC)c(OC)cc23)c([N+](=O)[O-])cc1OC` here?
Answer: 0.3% (inactive)

Question: Which inhibition (Assay 1, Ub-R110 substrate, at 24.19 µM) does the source give for `COC(CNC(=O)c1ccc2c3c(onc13)-c1ccccc1C2=O)OC` here?
Answer: 52.5%

Question: How did the inhibition (Assay 1, Ub-R110 substrate, at 14.16 µM) turn out when `CCc1cc[n+](C2=C(NS(=O)(=O)c3cccs3)C(=O)c3ccccc3C2=O)cc1` was run?
Answer: 64.3%

Question: `O=C1C=C(Nc2ccccc2)c2ccccc2C1=O` was tested. Which inhibition (Assay 1, Ub-R110 substrate, at 15.55 µM) did it give?
Answer: 21.8%

Question: For `Cc1ccc2c(c1C)-c1c(ccc(C)c1C)C(=O)C2=O`, which inhibition (Assay 1, Ub-R110 substrate, at 18.9 µM) is on record?
Answer: 62.5%

Question: With `CC1COCC(C)N1C1=C(Cl)C(=O)c2ccccc2C1=O` (stereo not drawn) as the compound, how does the inhibition (Assay 1, Ub-R110 substrate, at 14.67 µM) read?
Answer: 31.2%

Question: For `CCOC(=O)N=Nc1c2ccccc2c2nc3no[nH]c3nc12`, which inhibition (Assay 1, Ub-R110 substrate, at 7.75 µM) is on record?
Answer: 33.2%

Question: How did the inhibition (Assay 1, Ub-R110 substrate, at 11.01 µM) turn out when `O=C(c1ccco1)[C@@H]1[C@@H]2C(=O)N(c3ccc(Br)cc3)C(=O)[C@@H]2C2c3ccccc3C=CN21` (stereo partly drawn) was run?
Answer: 16.9% (inactive)

Question: How did the inhibition (Assay 1, Ub-R110 substrate, at 26.34 µM) turn out when `O=C(COC(=O)c1ccc([N+](=O)[O-])s1)Nc1ccc(F)cc1` was run?
Answer: 21.3%

Question: How did the inhibition (Assay 1, Ub-R110 substrate, at 4.98 µM) turn out when `COC1=C(N)C(=O)c2nc(C)ccc2C1=O` was run?
Answer: 16.6% (inactive)

Question: How did the inhibition (Assay 1, Ub-R110 substrate, at 0.49 µM) turn out when `CCn1nc(/C=C/c2ccccc2)nc2c(=O)n(C)c(=O)nc1-2` was run?
Answer: 98%

Question: `O=C(NC1=C(NC2CCS(=O)(=O)C2)C(=O)c2ccccc2C1=O)c1ccccc1` (stereo not drawn) was tested. Which inhibition (Assay 1, Ub-R110 substrate, at 14.2 µM) did it give?
Answer: 49.8%

Question: Which inhibition (Assay 1, Ub-R110 substrate, at 5.44 µM) does the source give for `O=C1OC(Nc2cc(Br)cc3cccnc23)c2ccccc21` (stereo not drawn) here?
Answer: 6% (inactive)

Question: For `O=C1Cc2ccccc2C(=O)N1Cc1ccccc1`, which inhibition (Assay 1, Ub-R110 substrate, at 1.31 µM) is on record?
Answer: 49.5%

Question: With `O=C1Cc2ccccc2C(=O)N1CCc1ccccc1` as the compound, how does the inhibition (Assay 1, Ub-R110 substrate, at 1.51 µM) read?
Answer: 3.44% (inactive)

Question: And the inhibition (Assay 2, Ub-R110 substrate, at 3.02 µM)?
Answer: 10.7% (inactive)

Question: Which results are given for `CN(C1=C(NC(=O)c2ccccc2)C(=O)c2ccccc2C1=O)C1CCS(=O)(=O)C1` (stereo not drawn)?
Answer: inhibition (Assay 1, Ub-R110 substrate, at 9.59 µM): 4.36% (inactive); inhibition (Assay 2, Ub-R110 substrate, at 19.18 µM): 55.5%

Question: Which inhibition (Assay 1, Ub-R110 substrate, at 29.01 µM) does the source give for `NS(=O)(=O)c1ccc(NC(=O)COC(=O)c2ccc([N+](=O)[O-])s2)cc1` here?
Answer: 13.3% (inactive)

Question: Which inhibition (Assay 1, Ub-R110 substrate, at 31.32 µM) does the source give for `CC1CCCC(NC(=O)COC(=O)c2ccc([N+](=O)[O-])s2)C1C` (stereo not drawn) here?
Answer: 14.7% (inactive)

Question: With `COc1ccc2noc3c2c1C(=O)c1ccccc1-3` as the compound, how does the inhibition (Assay 1, Ub-R110 substrate, at 6.28 µM) read?
Answer: 22.7%

Question: `CC1(C)C=C2C(=NN(c3ccccc3)C(N)=C2C#N)CO1` was tested. Which inhibition (Assay 1, Ub-R110 substrate, at 23.49 µM) did it give?
Answer: 22.2%

Question: Which inhibition (Assay 1, Ub-R110 substrate, at 11.51 µM) does the source give for `NS(=O)(=O)c1ccc(NC2=CC(=O)C(=O)c3ccccc32)cc1` here?
Answer: 21.1%

From PubChem BioAssay AID743474 (The Scripps Research Institute Molecular Screening Center, 2014)
